Reference: patent US20260272868A1 (priority 2022, published 2026)

Legend:
5-HT2A receptor = molecular target: T1, 5-HT2A receptor (Mus musculus, UniProt P35363); assay: Ex vivo occupancy of cortical 5-HT2A receptors by DOPR, [3H]MDL100,907 autoradiography; assay type: in vivo, mice; conditions: for receptor occupancy at 0.32 mg/kg / receptor occupancy at 1 mg/kg / receptor occupancy at 3.2 mg/kg / receptor occupancy at 32 mg/kg: mouse, sc
T1 construct: Coronal sections containing the frontal cortex were be cut (20 μm thick) using a cryostat; from tissue; host or cells: frontal cortex sections of male C57BL/6 mouse brain
Description: Mice had free access to food and water. Animals were randomly assigned to treatment groups.
Doses were calculated based on the HCl salt. MDL100,907 [methyl-^3H] was purchased from Novandi Chemistry. Ketanserin was purchased from Tocris (UK).
Mice were dosed with vehicle or DOPR (0.32, 1, 3.2, or 32 mg/kg, SC) and sacrificed at 15 or 60 minutes after dosing (n=5 per dose/time condition) by a rising CO2 concentration followed by cervical dislocation. Whole brains were removed, rinsed briefly with saline, and blot dried. A coronal cut was made at the level of the optic chiasm to produce an anterior brain block containing the frontal cortex (according to the Mouse Brain in Stereotaxic Coordinates, Paxinos and Franklin, second edition). The anterior brain block was then cut down the midline, both blocks were placed onto cork disks, covered with OCT embedding matrix (KMA-0100-00A, Cell Path), rapidly frozen in isopentane (cooled to −20/−30° C.) and stored at −20° C. for sectioning and ex vivo autoradiography. Coronal sections containing the frontal cortex were be cut (20 μm thick) using a cryostat and thaw mounted onto Superfrost plus slides and the slides were stored at −20° C. until the day of assay.
Slides containing brain sections were warmed to room temperature and sections were isolated using a DAKO pen and incubated at room temperature for 30 minutes in 200 μL of assay buffer containing 0.2 nM [^3H]MDL100,907 (total binding) or 0.2 nM [^3H]MDL100,907 and […] ketanserin (non-specific binding). Solutions were removed from the sections by aspiration and the slides were washed for two consecutive 5-minute periods in ice-cold wash buffer. The slides were then rinsed briefly in ice-cold distilled water to remove buffer salts and allowed to air dry. The assay and wash buffer consisted of 50 mM Tris, pH 7.4. The binding assay was performed on two separate occasions.
The waxy residue of the DAKO pen was removed with xylene to prevent sparks in the β-imager. Lint-free tissue and an air duster was used to remove any dust particles from the microscope slides. To make the slides conductive, copper foil tape was adhered to the free side of the microscope slides. The slides were placed in the β-imager and the levels of bound radioactivity in the sections were directly determined by counting the number of β-particles emerging from the delineated area using the M3 vision program (BioSpace). Data was collected from the brain sections over 16 hours and expressed in counts per minute per square millimetre (cpm/mm^2). A value for specific binding (cpm/mm^2) was generated by the subtraction of mean non-specific binding (cpm/mm^2) from mean total binding (cpm/mm^2) for each animal.

[1] = DOPR pharmacokinetics after SC administration; conditions: mouse, in vivo
[2] = tested on: head twitch response (HTR); assay type: in vivo, mice; conditions: SC; higher and lower doses result in fewer HTRs
Description: Male C57BL/6 mice (~7-9 weeks old) were used in these studies. Mice were housed 2 per cage under standard temperature- and humidity-controlled laboratory conditions with a 12-hour light/dark cycle. Mice had free access to food and water.
Both compounds were dissolved in saline vehicle at a dose volume of 10 mL/kg. Doses were corrected for salt form so that the dose administered represented free base.
Mice were randomly assigned to 1 of 6 treatment groups consisting of 2 subcutaneous injections (see Table 1), which were administered according to the schedule in FIG. 1. […] Behavior was videotaped by a camera (GoPro Hero 9) mounted above the testing chambers. Recorded video was uploaded for analysis of head twitch behavior. Number of head twitch responses (HTRs) was recorded for each animal for each 2-min bin. For each treatment group, the mean number of HTRs in each 2- or 10-min bin, and across the whole 30-min recording period, were analyzed.

T1 sequence (P35363 whole entry): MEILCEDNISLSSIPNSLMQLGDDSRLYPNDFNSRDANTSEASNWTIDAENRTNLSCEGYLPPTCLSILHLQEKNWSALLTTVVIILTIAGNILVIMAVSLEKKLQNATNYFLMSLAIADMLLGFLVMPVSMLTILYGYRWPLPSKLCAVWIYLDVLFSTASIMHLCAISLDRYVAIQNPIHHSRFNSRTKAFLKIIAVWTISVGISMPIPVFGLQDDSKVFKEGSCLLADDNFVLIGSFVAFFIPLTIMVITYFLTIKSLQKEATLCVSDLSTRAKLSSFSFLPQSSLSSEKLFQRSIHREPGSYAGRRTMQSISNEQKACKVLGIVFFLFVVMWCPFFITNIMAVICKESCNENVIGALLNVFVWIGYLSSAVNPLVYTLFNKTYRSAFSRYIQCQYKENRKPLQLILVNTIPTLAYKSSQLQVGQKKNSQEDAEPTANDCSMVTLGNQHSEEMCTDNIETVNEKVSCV

CCCc1cc(OC)c(CC(C)N)cc1OC (stereo not drawn) [DOPR, 2,5-dimethoxy-4-propylamphetamine]
Specific Binding (% of Vehicle) (5-HT2A receptor; DOPR 0.32 mg/kg SC, 15 min): 105 % of Vehicle
Specific binding, Mean (SEM) (5-HT2A receptor; DOPR 0.32 mg/kg SC, 15 min): 1.39 (0.06) cpm/mm^2
Specific Binding (% of Vehicle) (5-HT2A receptor; DOPR 0.32 mg/kg SC, 60 min): 93 % of Vehicle
Specific binding, Mean (SEM) (5-HT2A receptor; DOPR 0.32 mg/kg SC, 60 min): 1.23 (0.08) cpm/mm^2
Specific Binding (% of Vehicle) (5-HT2A receptor; DOPR 1 mg/kg SC, 15 min): 104 % of Vehicle
Specific binding, Mean (SEM) (5-HT2A receptor; DOPR 1 mg/kg SC, 15 min): 1.38 (0.06) cpm/mm^2
Specific Binding (% of Vehicle) (5-HT2A receptor; DOPR 1 mg/kg SC, 60 min): 67 % of Vehicle
Specific binding, Mean (SEM) (5-HT2A receptor; DOPR 1 mg/kg SC, 60 min): 0.88 (0.07) cpm/mm^2
Specific Binding (% of Vehicle) (5-HT2A receptor; DOPR 3.2 mg/kg SC, 15 min): 71 % of Vehicle
Specific binding, Mean (SEM) (5-HT2A receptor; DOPR 3.2 mg/kg SC, 15 min): 0.93 (0.09) cpm/mm^2
Specific Binding (% of Vehicle) (5-HT2A receptor; DOPR 3.2 mg/kg SC, 60 min): 43 % of Vehicle
Specific binding, Mean (SEM) (5-HT2A receptor; DOPR 3.2 mg/kg SC, 60 min): 0.57 (0.05) cpm/mm^2
Specific Binding (% of Vehicle) (5-HT2A receptor; DOPR 32 mg/kg SC, 15 min): 18 % of Vehicle
Specific binding, Mean (SEM) (5-HT2A receptor; DOPR 32 mg/kg SC, 15 min): 0.23 (0.04) cpm/mm^2
Specific Binding (% of Vehicle) (5-HT2A receptor; DOPR 32 mg/kg SC, 60 min): 8 % of Vehicle
Specific binding, Mean (SEM) (5-HT2A receptor; DOPR 32 mg/kg SC, 60 min): 0.10 (0.01) cpm/mm^2
dose calculated to occupy 50% of 5-HT2A receptors (5-HT2A receptor; SC, mice): 2.08 mg/kg
receptor occupancy at 0.32 mg/kg (5-HT2A receptor; DOPR 0.32 mg/kg SC, 15 min): -5%
receptor occupancy at 0.32 mg/kg (5-HT2A receptor; DOPR 0.32 mg/kg SC, 60 min): 7%
receptor occupancy at 1 mg/kg (5-HT2A receptor; DOPR 1 mg/kg SC, 15 min): -4%
receptor occupancy at 1 mg/kg (5-HT2A receptor; DOPR 1 mg/kg SC, 60 min): 33%
receptor occupancy at 3.2 mg/kg (5-HT2A receptor; DOPR 3.2 mg/kg SC, 15 min): 29%
receptor occupancy at 3.2 mg/kg (5-HT2A receptor; DOPR 3.2 mg/kg SC, 60 min): 57%
receptor occupancy at 32 mg/kg (5-HT2A receptor; DOPR 32 mg/kg SC, 15 min): 82%
receptor occupancy at 32 mg/kg (5-HT2A receptor; DOPR 32 mg/kg SC, 60 min): 92%
Tmax [1]: 1 h
dose maximally efficacious for induction of HTR [2]: 3.2 mg/kg
